Here are results for 2 compounds from patent US6713500B2, “Agent for controlling animal diseases caused by parasites” (Ishihara Sangyo Kaisha Ltd., priority 1999, dated 2004).

Read-outs that look alike come from different tables or passages of the source.

The subject of the assay is Eimeria tenella of wild type (fresh immature oocysts). Nature of the assay: microbe, parasite or virus in culture. The assay is classed as cell-based. To be noted: read-out: Mortality of oocysts (%). Here is the method:
Chicks were infested with Eimeria tenella of wild type to obtain fresh immature oocycts. The obtained fresh immature oocysts were exposed to a solution of each test substance having a predetermined concentration for 10 or 30 minutes. The exposed immature oocysts were centrifuged at 1500 min^−1 for 5 minutes, and the supernatant was removed. Then, a 2% potassium bichromate aqueous solution was added, and sporulation was carried out at 25° C. for 4 days, whereupon the ratio of mature oocysts (sporulated oocysts) to the number of observed oocysts, was calculated.
Mortality of oocysts={1−(sporulation rate with exposure to test substance)/(sporulation rate without exposure to test substance)}×100

Take `Cc1ccc(-c2c(Cl)nc(C#N)n2S(=O)(=O)N(C)C)cc1` [compound 1, 4-chloro-2-cyano-1-dimethylsulfamoyl-5-(4-methylphenyl)imidazole]: for the setting “10 min”, the mortality at 0.1 ppm was 43.8%, the mortality at 1 ppm amounted to 36.9% and the mortality at 10 ppm came to 42.5%. Besides, under “0.5 h”, the mortality at 0.1 ppm came out at 51.1%, the mortality at 1 ppm was found to be 80.3% and the mortality at 10 ppm turned out to be 87.9%.
As to `CCc1ccc(C(F)c2c(Cl)nc(C#N)n2S(=O)(=O)N(C)C)cc1` (stereo not drawn) [compound 5, 4-chloro-2-cyano-1-dimethylsulfamoyl-5-(4-ethyl-α-fluorobenzyl)imidazole], the mortality at 0.1 ppm stood at 34.4% (10 min, Exposure time: 10 min, 0.1 ppm) and 71.3% (0.5 h, Exposure time: 30 min, 0.1 ppm). Besides, the mortality at 1 ppm by setting is: (10 min, Exposure time: 10 min, 1 ppm) 30%; (0.5 h, Exposure time: 30 min, 1 ppm) 75.2%. Also, the mortality at 10 ppm was determined as 75% (10 min, Exposure time: 10 min, 10 ppm) and 72.6% (0.5 h, Exposure time: 30 min, 10 ppm).

For orientation: mortality means the percentage killed.
